Assay results published in paper PMC6001238, “Iterative Chemical Engineering of Vancomycin Leads to Novel Vancomycin Analogs With a High in Vitro Therapeutic Index” (Frontiers in Microbiology, 2018).
In brackets after ≈: the same amount, converted by molar mass.

Experiments:
E. faecalis VRE 6 = experiment: MIC, broth microdilution, vancomycin-resistant E. faecalis VRE 6 (VanA); format: cell-based, Enterococcus faecalis; conditions: for MIC: Enterococcus faecalis VRE 6 (vancomycin-resistant), read-out: MIC; for MIC-fold improvement vs. vancomycin: VRE 6, ratio of MIC of vancomycin and MIC of analogue
How it was run: (§1)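 Serial dilutions in broth, set up per CLSI guidance, gave the MIC. Where noted, test analogues or comparator antibiotics were combined with vancomycin at 10 μM final. Controls: ultrapure water, broth without inoculum.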

[1] = tested on: L1210, CEM and HeLa cell lines; experiment: Cytostatic activity, average or summary over L1210, CEM and HeLa; format: cell-based; conditions: average of L1210, CEM and HeLa; read-out: Toxicity (IC50) Average
How it was run: (§2)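 Suspensions (300,000–500,000 cells/mL) combined with equal volumes of diluted compound; 37°C; L1210 2 d / CEM 3 d / HeLa 4 d; counted by Coulter counter; IC50 vs untreated wells.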

[2] = tested on: Clostridium difficile AIU ribotype 027; experiment: MIC, plate drop assay, C. difficile AIU ribotype 027; format: cell-based; conditions: for MIC-fold improvement vs. vancomycin: C. difficile AIU ribotype 027
Description: (§3) Bacterial lawns of both C. difficile strains were prepared by adding 0.5 mL overnight culture to 8 mL sloppy BHI agar (0.4% agar) supplemented with 1.5 g/L CaCl2⋅2H2O and 81.2 g/L MgCl2⋅6H2O, and pouring the mixture into Petri plates. A twofold dilution series of the selected vancomycin analogs, vancomycin ([…]) and daptomycin (25 μM) was spotted (10 μL) on the bacterial lawn. Spots were air-dried and the plates were incubated overnight at 37°C in an anaerobic cabinet. Ultrapure water was included as negative control. The assay was performed in triplicate. Inhibition was observed by cleared spots.

E. faecalis VRE 37 = experiment: MIC, broth microdilution, vancomycin-resistant E. faecalis VRE 37 (VanA); format: cell-based, Enterococcus faecalis; conditions: for MIC: Enterococcus faecalis VRE 37 (vancomycin-resistant), read-out: MIC; for MIC-fold improvement vs. vancomycin: VRE 37, ratio of MIC of vancomycin and MIC of analogue
How it was run: as §1

[3] = tested on: Clostridium difficile ATJ ribotype 014/20; experiment: MIC, plate drop assay, C. difficile ATJ ribotype 014/20; format: cell-based; conditions: C. difficile ATJ ribotype 014/20
Description: as §3

[4] = tested on: human cervix carcinoma (HeLa) cells; experiment: Cytostatic activity, HeLa cell proliferation; format: cell-based; conditions: mean ± SD of three experiments; highest concentration tested 250 µM; 4 days; read-out: Toxicity (IC50) HeLa
How it was run: as §2

E. faecalis VRE 29 = experiment: MIC, broth microdilution, vancomycin-resistant E. faecalis VRE 29 (VanA); format: cell-based, Enterococcus faecalis; conditions: for MIC: Enterococcus faecalis VRE 29 (vancomycin-resistant), read-out: MIC
How it was run: as §1

MRSA KS89 = experiment: MIC, broth microdilution, MRSA KS89; format: cell-based, Staphylococcus aureus; conditions: for MIC-fold improvement vs. vancomycin: MRSA KS8, ratio of MIC of vancomycin and MIC of analogue; for MIC: Staphylococcus aureus MRSA KS8, read-out: MIC
How it was run: as §1

MRSA KS1 = experiment: MIC, broth microdilution, MRSA KS1; format: cell-based, Staphylococcus aureus; conditions: for MIC-fold improvement vs. vancomycin: MRSA KS1, ratio of MIC of vancomycin and MIC of analogue; for MIC: Staphylococcus aureus MRSA KS1, read-out: MIC
How it was run: as §1

MRSA KS2 = experiment: MIC, broth microdilution, MRSA KS2; format: cell-based, Staphylococcus aureus; conditions: for MIC-fold improvement vs. vancomycin: MRSA KS2, ratio of MIC of vancomycin and MIC of analogue; for MIC: Staphylococcus aureus MRSA KS2, read-out: MIC
How it was run: as §1

E. faecalis VSE 1 = experiment: MIC, broth microdilution, vancomycin-sensitive E. faecalis (VSE 1); format: cell-based, Enterococcus faecalis; conditions: for MIC: Enterococcus faecalis VSE 1 (vancomycin-sensitive), read-out: MIC; for MIC-fold improvement vs. vancomycin: VSE 1, ratio of MIC of vancomycin and MIC of analogue
How it was run: as §1

[5] = tested on: human T-lymphocyte (CEM) cells; experiment: Cytostatic activity, CEM cell proliferation; format: cell-based; conditions: mean ± SD of three experiments; highest concentration tested 250 µM; 3 days; read-out: Toxicity (IC50) CEM
How it was run: as §2

[6] = tested on: S. aureus VSSA (ATCC 6538); experiment: MIC, broth microdilution, vancomycin-sensitive S. aureus (VSSA/MSSA, ATCC 6538); format: cell-based, Staphylococcus aureus; conditions: for MIC: Staphylococcus aureus VSSA, read-out: MIC; for MIC-fold improvement vs. vancomycin: VSSA, ratio of MIC of vancomycin and MIC of analogue
How it was run: as §1

S. aureus VISA/HIP5827 = experiment: MIC, broth microdilution, vancomycin-intermediate S. aureus VISA HIP5827; format: cell-based, Staphylococcus aureus; conditions: for MIC: Staphylococcus aureus VISA/HIP5827, read-out: MIC; for MIC-fold improvement vs. vancomycin: VISA/HIP5827, ratio of MIC of vancomycin and MIC of analogue
How it was run: as §1

MRSA KS6 = experiment: MIC, broth microdilution, MRSA KS6; format: cell-based, Staphylococcus aureus; conditions: for MIC-fold improvement vs. vancomycin: MRSA KS6, ratio of MIC of vancomycin and MIC of analogue; for MIC: Staphylococcus aureus MRSA KS6, read-out: MIC
How it was run: as §1

[7] = tested on: Murine leukemia (L1210) cells; experiment: Cytostatic activity, L1210 cell proliferation; format: cell-based; conditions: mean ± SD of three experiments; highest concentration tested 250 µM; 2 days; read-out: Toxicity (IC50) L1210
How it was run: as §2

E. faecalis VRE 53 = experiment: MIC, broth microdilution, vancomycin-resistant E. faecalis VRE 53 (VanA); format: cell-based, Enterococcus faecalis; conditions: for MIC: Enterococcus faecalis VRE 53 (vancomycin-resistant), read-out: MIC; for MIC-fold improvement vs. vancomycin: VRE 53, ratio of MIC of vancomycin and MIC of analogue
How it was run: as §1

S. aureus VRSA = experiment: MIC, broth microdilution, vancomycin-resistant S. aureus (VRSA); format: cell-based, Staphylococcus aureus; conditions: for MIC: Staphylococcus aureus VRSA, read-out: MIC; for MIC-fold improvement vs. vancomycin: VRSA, ratio of MIC of vancomycin and MIC of analogue
How it was run: as §1

Row | Structure (SMILES) | MIC (E. faecalis VRE 6) [µM] | MIC-fold improvement vs. vancomycin (E. faecalis VRE 6) | IC50 [1] [µM] | MIC-fold improvement vs. vancomycin [2] | MIC (E. faecalis VRE 37) [µM] | MIC-fold improvement vs. vancomycin (E. faecalis VRE 37) | MIC-fold improvement vs. vancomycin [3] | IC50 [4] [µM] | MIC (E. faecalis VRE 29) [µM] | MIC-fold improvement vs. vancomycin (MRSA KS89) | MIC (MRSA KS89) [µM] | MIC-fold improvement vs. vancomycin (MRSA KS1) | MIC (MRSA KS1) [µM] | MIC-fold improvement vs. vancomycin (MRSA KS2) | MIC (MRSA KS2) [µM] | MIC (E. faecalis VSE 1) [µM] | MIC-fold improvement vs. vancomycin (E. faecalis VSE 1) | IC50 [5] [µM] | MIC [6] [µM] | MIC-fold improvement vs. vancomycin [6] | other results
1 | CN[C@H](CC(C)C)C(=O)N[C@H]1C(=O)N[C@@H](CC(N)=O)C(=O)N[C@H]2C(=O)N[C@H]3C(=O)N[C@H](C(=O)N[C@H](C(=O)NCC(=O)Nc4ccc(C)cc4)c4cc(O)cc(O)c4-c4cc3ccc4O)[C@H](O)c3ccc(c(Cl)c3)Oc3cc2cc(c3O[C@@H]2O[C@H](CO)[C@@H](O)[C@H](O)[C@H]2O[C@H]2C[C@](C)(N)[C@H](O)[C@H](C)O2)Oc2ccc(cc2Cl)[C@H]1O [Vanc-4] | 3.13 (≈ 4.99 µg/mL) | 64 | > 250 | <1.8 | 6.25 (≈ 9.97 µg/mL) | 128 | 5.6 | > 250 | 6.25 (≈ 9.97 µg/mL) | 2 | 0.39 (≈ 0.622 µg/mL) | 2 | 0.39 (≈ 0.622 µg/mL) | 4 | 0.20 (≈ 0.319 µg/mL) | 0.39 (≈ 0.622 µg/mL) | 4 | > 250 | 0.39 (≈ 0.622 µg/mL) | 2 | MIC ([2]; C. difficile AIU ribotype 027, plate drop assay): >25 µM; MIC-fold improvement vs. vancomycin (E. faecalis VRE 29; VRE 29, ratio of MIC of vancomycin and MIC of analogue): 64; MIC (S. aureus VISA/HIP5827): 0.39 µM (≈ 0.622 µg/mL); MIC-fold improvement vs. vancomycin (S. aureus VISA/HIP5827): 16; MIC-fold improvement vs. vancomycin (MRSA KS6): 2; MIC (MRSA KS6): 0.39 µM (≈ 0.622 µg/mL); IC50 [7]: > 250 µM; MIC (E. faecalis VRE 53): 6.25 µM (≈ 9.97 µg/mL); MIC-fold improvement vs. vancomycin (E. faecalis VRE 53): 64; MIC (S. aureus VRSA): 6.25 µM (≈ 9.97 µg/mL); MIC-fold improvement vs. vancomycin (S. aureus VRSA): 16
2 | CN[C@H](CC(C)C)C(=O)N[C@H]1C(=O)N[C@@H](CC(N)=O)C(=O)N[C@H]2C(=O)N[C@H]3C(=O)N[C@H](C(=O)N[C@H](C(=O)NCC(=O)Nc4ccc(Cl)cc4Cl)c4cc(O)cc(O)c4-c4cc3ccc4O)[C@H](O)c3ccc(c(Cl)c3)Oc3cc2cc(c3O[C@@H]2O[C@H](CO)[C@@H](O)[C@H](O)[C@H]2O[C@H]2C[C@](C)(N)[C@H](O)[C@H](C)O2)Oc2ccc(cc2Cl)[C@H]1O [Vanc-14] | 1.56 (≈ 2.57 µg/mL) | 128 | 138 | 29 | 6.25 (≈ 10.3 µg/mL) | 128 | 22 | 148 ± 6 | 3.13 (≈ 5.17 µg/mL) | 4 | 0.20 (≈ 0.33 µg/mL) | 2 | 0.39 (≈ 0.644 µg/mL) | 4 | 0.20 (≈ 0.33 µg/mL) | 0.20 (≈ 0.33 µg/mL) | 8 | 114 ± 18 | 0.20 (≈ 0.33 µg/mL) | 4 | MIC (S. aureus VISA/HIP5827): 0.10 µM (≈ 0.165 µg/mL); MIC-fold improvement vs. vancomycin (S. aureus VISA/HIP5827): 64; MIC-fold improvement vs. vancomycin (MRSA KS6): 2; MIC (MRSA KS6): 0.39 µM (≈ 0.644 µg/mL); IC50 [7]: 153 ± 55 µM; MIC (E. faecalis VRE 53): 3.13 µM (≈ 5.17 µg/mL); MIC-fold improvement vs. vancomycin (E. faecalis VRE 53): 128; MIC (S. aureus VRSA): 3.13 µM (≈ 5.17 µg/mL); MIC-fold improvement vs. vancomycin (S. aureus VRSA): 32
